Structures can show the parent of a compound that is named as a salt.
How the values were obtained:
Experiment in all cases: viability inhibition at highest dose (% inhibition); higher = more growth inhibition
BT-474 Tam1 = conditions: 4-OH-tamoxifen in medium 1 µM; 72 h
Description: (§1)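 Percent inhibition of viability (CellTiter-Glo, 72 h) at the highest tested concentration (D5), normalised to DMSO (0%) and 100 µM benzethonium chloride (100%). Resistant lines and the 'in 1µM tamoxifen' arms were tested in 1 µM 4-OH-tamoxifen.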

BT-474 Tam2 = conditions: 4-OH-tamoxifen in medium 1 µM; 72 h
Description: as §1

BT-474 = conditions: 72 h
Description: as §1

MCF-7 Tam1 = conditions: 4-OH-tamoxifen in medium 1 µM; 72 h
Description: as §1

MCF-7 = conditions: 72 h
Description: as §1

T-47D Tam1 = conditions: 4-OH-tamoxifen in medium 1 µM; 72 h
Description: as §1

T-47D Tam2 = conditions: 4-OH-tamoxifen in medium 1 µM; 72 h
Description: as §1

T-47D = conditions: 72 h
Description: as §1

ZR-75-1 Tam1 = conditions: 4-OH-tamoxifen in medium 1 µM; 72 h
Description: as §1

ZR-75-1 Tam2 = conditions: 4-OH-tamoxifen in medium 1 µM; 72 h
Description: as §1

ZR-75-1 = conditions: 72 h
Description: as §1

| Structure (SMILES) | viability inhibition at highest dose (BT-474 Tam1) | viability inhibition at highest dose (BT-474 Tam2) | viability inhibition at highest dose (BT-474; 4-OH-tamoxifen in medium 0 µM) | viability inhibition at highest dose (BT-474; 4-OH-tamoxifen in medium 1 µM) | viability inhibition at highest dose (MCF-7 Tam1) | viability inhibition at highest dose (MCF-7; 4-OH-tamoxifen in medium 0 µM) | viability inhibition at highest dose (MCF-7; 4-OH-tamoxifen in medium 1 µM) | viability inhibition at highest dose (T-47D Tam1) | viability inhibition at highest dose (T-47D Tam2) | viability inhibition at highest dose (T-47D; 4-OH-tamoxifen in medium 0 µM) | viability inhibition at highest dose (T-47D; 4-OH-tamoxifen in medium 1 µM) | viability inhibition at highest dose (ZR-75-1 Tam1) | viability inhibition at highest dose (ZR-75-1 Tam2) | viability inhibition at highest dose (ZR-75-1; 4-OH-tamoxifen in medium 0 µM) | viability inhibition at highest dose (ZR-75-1; 4-OH-tamoxifen in medium 1 µM) |
| --- | --- | --- | --- | --- | --- | --- | --- | --- | --- | --- | --- | --- | --- | --- | --- |
| Cn1c(CCCC(=O)O)nc2cc(N(CCCl)CCCl)ccc21 [Bendamustine (hydrochloride hydrate)] (drug 10000 nM) | -12.7 | -4.38 | -0.115 | -10.7 | -4.92 | 17.8 | -4.09 | 0.785 | -2.82 | -0.126 | -12.1 | -0.263 | 5.86 | -7.06 | -2.1 |
| COc1ccccc1S(=O)(=O)Nc1ccc2c(c1)CN(C)C(=O)N2 [PFI-1] (drug 10000 nM) | 25.7 | 30.3 | 32.8 | 25.7 | 4.98 | 44.2 | 38.1 | 36.4 | 32.8 | 26.2 | 14 | 23.8 | 25.8 | 13.1 | 25.2 |
| CC1=C2C[C@H]3[C@@H](CC=C4C[C@@H](O)CC[C@@]43C)[C@@H]2CC[C@]12O[C@@H]1C[C@H](C)CN[C@H]1[C@H]2C [Cyclopamine] (drug 10000 nM) | 0.632 | -2.39 | -4.32 | -7.93 | -8.03 | -20.5 | -1.78 | -2.15 | 1.98 | -17.5 | -14 | -2.07 | -6.35 | -9.96 | -4.21 |
| COc1cc(F)c(F)c(Nc2ccc(I)cc2F)c1NS(=O)(=O)C1(C[C@H](O)CO)CC1 [Refametinib (RDEA119)] (drug 10000 nM) | 36.3 | 14 | 9.83 | 54.3 | 33.1 | 44.2 | 39.9 | 31.2 | 22 | 24.3 | 12.7 | 8.84 | 10.6 | 20.6 | 14.9 |
| Cc1[nH]c2ccccc2c1CCNCc1ccc(/C=C/C(=O)NO)cc1 [Panobinostat] (drug 1000 nM) | 84.4 | 69.6 | 87.5 | 97.2 | 21.3 | 89.4 | 88.4 | 85.3 | 68.7 | 96.4 | 95.5 | 43.1 | 51.4 | 50.5 | 40.7 |
| CC(C)(C)NC(=O)[C@H]1CC[C@H]2[C@@H]3CC[C@H]4NC(=O)C=C[C@]4(C)[C@H]3CC[C@]12C [Finasteride] (drug 10000 nM) | 27.2 | 19.1 | -6.68 | -0.99 | 3.61 | -0.974 | 6.29 | 14.8 | 18 | -5.04 | -8.61 | -2.42 | 4.5 | -8.28 | 7.55 |
| NC1(c2ccc(-c3nc4ccn5c(=O)[nH]nc5c4cc3-c3ccccc3)cc2)CCC1 [MK-2206] (drug 1000 nM) | 47 | 21.9 | 27.6 | 50.8 | 29.1 | 35.1 | 44.8 | 44.5 | 49.9 | 52.4 | 36.6 | 60.8 | 63.1 | 57.1 | 51.6 |
| CC1=C(/C=C/C(C)=C/C=C/C(C)=C/C(=O)O)C(C)(C)CCC1 [Tretinoin] (drug 10000 nM) | -5.43 | 7.81 | -1.01 | -18.6 | 15.9 | -12.3 | 14.5 | 14.5 | 14.5 | 3.78 | 2.8 | 5.21 | 4.01 | 0.707 | -8.55 |
| CCNC(=O)CCC/C=C\C[C@@H]1[C@@H](/C=C/[C@@H](O)CCc2ccccc2)[C@H](O)C[C@@H]1O [Bimatoprost] (drug 5500 nM) | -14.6 | -16.2 | -10.2 | -22.1 | -5.08 | 10.1 | -1.71 | -9.33 | -4.37 | -18.2 | -17.9 | -5.04 | -15.8 | -13.7 | -4.04 |
| CCCCCCCCc1ccc(CCC(N)(CO)CO)cc1 [Fingolimod] (drug 10000 nM) | 96.8 | 95.2 | 94.4 | 96.6 | 11.9 | 94.6 | 71.4 | 62.4 | 59.1 | 69.4 | 91.9 | 45.3 | 55.5 | 40.8 | 52.5 |
| Nc1ncn([C@H]2C[C@H](O)[C@@H](CO)O2)c(=O)n1 [Decitabine (Dacogen)] (drug 10000 nM) | -15.7 | -4.48 | -1.68 | -2.07 | -12.3 | 17.6 | 2.36 | -9.55 | -3.18 | -15 | -11.2 | -4.61 | -2.91 | -8.36 | -6.99 |
| COc1cc2c(cc1O)CC[C@@H]1[C@@H]2CC[C@]2(C)[C@@H](O)CC[C@@H]12 [2-methoxyestradiol  (Panzem)] (drug 10000 nM) | 27.1 | 24.3 | 48.9 | 63.3 | -11.2 | 24.8 | 17.7 | 24.5 | 29.8 | 32.6 | -2.41 | 6.41 | 3.21 | 36.8 | 2.3 |
| Cn1nnc2c(C(N)=O)ncn2c1=O [Temozolomide] (drug 10000 nM) | 19.9 | -6.27 | -5.95 | 22.9 | 1.07 | -13.8 | -0.417 | 1.44 | -13 | 0.803 | 1.13 | 6.09 | 0.839 | 11.9 | -5.2 |
| CS(=O)(=O)OCCCCOS(C)(=O)=O [Busulfan] (drug 100000 nM) | -2.76 | 1 | 1.99 | 8.07 | -1.89 | -5.52 | 10.5 | 1.25 | 6.32 | -1.41 | -0.37 | -5.35 | -11.6 | 1.38 | -1.26 |
| COc1cc2nccc(Oc3ccc(NC(=O)C4(C(=O)Nc5ccc(F)cc5)CC4)cc3)c2cc1OC [Cabozantinib (XL184)] (drug 1000 nM) | 22.4 | 7.72 | -10.4 | 16 | 1.76 | 5.85 | 11.3 | 2.69 | 10.4 | -4.29 | -1.77 | 6.25 | 2.11 | -14.6 | -2.98 |
| S=c1[nH]cnc2nc[nH]c12 [Mercaptopurine] (drug 10000 nM) | 3.48 | 6.87 | 3.7 | 13.8 | 11.9 | 18.1 | 27.8 | 11.9 | 12.1 | 3.17 | -0.759 | 35.5 | 18 | 39.5 | 6.71 |
| CCc1cncnc1N1CCN(Cc2nc3ccc(C(F)(F)F)cc3[nH]2)CC1 (drug 10000 nM) | 68.5 | 41.4 | 36 | 53.7 | 20.7 | 37.2 | 33.2 | 33.4 | 31 | 33 | 15.3 | 17.9 | 25.5 | 18.5 | 28.3 |
| O=NN(CCCl)C(=O)NC1CCCCC1 [Lomustine] (drug 10000 nM) | 0.268 | -2.72 | -2.85 | 4.76 | -10.9 | 12.6 | 13.1 | -5.12 | 7.26 | -10.8 | -1.44 | -0.686 | -14.9 | -11.7 | -5.51 |
| O=C1c2c(O)ccc(O)c2C(=O)c2c(NCCNCCO)ccc(NCCNCCO)c21 [Mitoxantrone] (drug 1000 nM) | -23.8 | -13.6 | 3.96 | -1.95 | 1.72 | -3.19 | 7.73 | 47.8 | 21.5 | 29.5 | 2.9 | 21.3 | 24.9 | 29.7 | 20.2 |
| C[C@@]1(C(=O)Nc2ccc(F)nc2)CCCN1c1nc(Nc2cc(C3CC3)n[nH]2)c2cccn2n1 (drug 10000 nM) | 15.1 | 6.42 | 13 | 23.1 | 68.9 | 67.7 | 81.4 | 46.5 | 59.2 | 48.6 | 41.9 | -16.4 | -9.78 | -26.3 | -1.41 |
| O=C(c1ccc(OCCN2CCCCC2)cc1)c1c(-c2ccc(O)cc2)sc2cc(O)ccc12 [Raloxifene  HCl] (drug 10000 nM) | 44.3 | 34.8 | 22.8 | 54 | 21.5 | 33.2 | 33.8 | 12.6 | 25.9 | 11.3 | 9.48 | 9.11 | 2.72 | 11.9 | 13.3 |
| C=C(c1ccc(C(=O)O)cc1)c1cc2c(cc1C)C(C)(C)CCC2(C)C [Bexarotene] (drug 10000 nM) | -1.85 | 0.869 | 1.74 | 20.9 | 19.2 | -1.91 | 5.85 | 25.9 | 9.65 | 13.7 | 14.2 | -2.13 | 9.24 | 15.4 | 8.83 |
| COc1ccc(-c2cc3c(C)nc(N)nc3n([C@H]3CC[C@H](OCCO)CC3)c2=O)cn1 (drug 10000 nM) | 100 | 94.3 | 96.1 | 100 | 67.1 | 79.9 | 82.6 | 92.6 | 88.2 | 94.6 | 93.7 | 86.8 | 88.1 | 83.5 | 76.1 |
| COC(=O)c1ccc2c(c1)NC(=O)/C2=C(\Nc1ccc(N(C)C(=O)CN2CCN(C)CC2)cc1)c1ccccc1 [Nintedanib (BIBF 1120)] (drug 10000 nM) | 30.7 | -5.56 | 5.93 | 24.8 | -3.72 | 12.4 | 3.6 | -2.42 | 5.71 | -18.3 | -16.7 | 7.5 | -3.8 | -10.8 | -9.4 |
| COc1c2occc2cc2ccc(=O)oc12 [Methoxsalen] (drug 10000 nM) | 10.8 | 1.89 | -4.57 | 7.92 | -6.39 | -6.63 | 1.6 | -4.99 | 7.26 | -17.2 | -5.34 | 2.54 | -6.82 | -8.57 | 1.74 |
| CCCCCOC(=O)Nc1nc(=O)n([C@@H]2O[C@H](C)[C@@H](O)[C@H]2O)cc1F [Capecitabine] (drug 10000 nM) | 0.103 | -6.54 | -9.89 | -7.23 | -12 | -4.69 | -0.939 | 1.61 | 2.81 | -17.6 | -17 | 11.1 | 7.55 | 24.8 | 0.654 |
| C[C@@H]1C=C2C(=O)O[C@@H]3CC[C@H](C1)[C@]23O [Galiellalactone] (drug 50000 nM) | 50.9 | 3.76 | -0.142 | 54.5 | -3.64 | 72.3 | 14.4 | 41.4 | 40.6 | 59.8 | 54.7 | 4.34 | 1.46 | -10.5 | -3.25 |
| Cn1cnc2c(F)c(Nc3ccc(Br)cc3Cl)c(C(=O)NOCCO)cc21 [Selumetinib  (AZD6244)] (drug 10000 nM) | 21.1 | -2.62 | -0.443 | 29.7 | 11.7 | 13.7 | 16.6 | 19.9 | 10.8 | -3.23 | -12.3 | 2.2 | 3.53 | -8.87 | -4.69 |

Source: the supplement of paper PMC4932681
